According to BindingDB's records for patent US117730 (Glaxosmithkline Intellectual Property Development, 2023):

Target: T1, Furin [108-574] (Homo sapiens, UniProt P09958)
T1 construct: 108-574
Test: Furin Enzyme Assay
Experimental: Reactions were performed in black 384-well polystyrene low volume plates (Greiner). […] Compounds of the invention were dissolved in DMSO (1.0 mM) and serially diluted 1 to 3 with DMSO through eleven dilutions to provide a final compound concentration range from 0.00017 to 10 μM. 0.05 μL of each concentration was transferred to the corresponding well of an assay plate, and then 5 μL of 40 pM furin enzyme in assay buffer (100 mM HEPES pH7.5, 1 mM CaCl2 and 0.005% Triton X-100) was added using a Multidrop Combi (Thermo) to the compound plates, and mixed by inversion. […] The plates were centrifuged at 500×g for 1 minute and incubated at room temperature for two hours. Enzyme inhibition is then quantified using an Envision instrument (PerkinElmer).

T1 sequence (P09958 108-574): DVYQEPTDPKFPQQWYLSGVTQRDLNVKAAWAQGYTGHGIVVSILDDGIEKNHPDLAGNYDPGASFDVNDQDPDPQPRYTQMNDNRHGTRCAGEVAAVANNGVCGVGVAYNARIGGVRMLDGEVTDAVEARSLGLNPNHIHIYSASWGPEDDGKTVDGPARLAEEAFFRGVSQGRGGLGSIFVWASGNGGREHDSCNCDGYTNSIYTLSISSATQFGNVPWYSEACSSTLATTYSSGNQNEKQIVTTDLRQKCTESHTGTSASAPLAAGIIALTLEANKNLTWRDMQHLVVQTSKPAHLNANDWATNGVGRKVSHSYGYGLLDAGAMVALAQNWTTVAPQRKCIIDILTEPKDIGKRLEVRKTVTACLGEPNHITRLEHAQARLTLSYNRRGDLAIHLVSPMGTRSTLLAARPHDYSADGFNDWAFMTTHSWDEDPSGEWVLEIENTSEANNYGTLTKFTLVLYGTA

| Compound | IC50 [nM] |
| --- | --- |
| COC(=O)NCC1CCN(Cc2cc(Oc3cnc(N4CC5CCC(C4)N5CCC(=O)O)nc3)nc(-c3cc(Cl)cc(Cl)c3)c2)CC1 [US11773078, Example 56] | 0.032 |
| O=C(O)CC1CCN(Cc2cc(Oc3ccc(C4C[C@@H]5C[C@H]4CN5)nc3)nc(-c3cc(Cl)cc(Cl)c3)c2)CC1 (some centres not stated) [US11773078, Example 187] | 1.26 |
| NS(=O)(=O)CCC1CCN(Cc2cc(Oc3ccc(N4CCN(CCC(=O)O)CC4)nc3)nc(-c3cc(Cl)cc(Cl)c3)c2)CC1 [US11773078, Example 277] | 0.032 |
| CC(O)CCN1CCC(c2cnc(Cc3cc(CN4CCC(CC(N)=O)CC4)cc(-c4cc(Cl)cc(Cl)c4)n3)cn2)CC1 (configuration not stated) [US11773078, Example 164] | 3.98 |
| CNC(=O)NCC1CCN(Cc2cc(Oc3ccc(N4CCN(CCCS(N)(=O)=O)CC4)nc3)nc(-c3cc(Cl)cc(Cl)c3)c2)CC1 [US11773078, Example 260] | 0.2 |
| CNC(=O)NCC1CCN(Cc2cc(Oc3cnc(N4CCN(C)CC4)nc3)nc(-c3cc(Cl)cc(Cl)c3)c2)CC1 [US11773078, Example 70] | 0.032 |
| COC(=O)NC(=O)CCN1CCN(c2ncc(Cc3cc(CN4CCC(CNC(C)=O)CC4)cc(-c4cc(Cl)cc(Cl)c4)c3)cn2)CC1 [US11773078, Example 172] | 0.251 |
| CC(=O)NCC1CCN(Cc2cc(Oc3cnc(N4CCN(C(=O)CCN)CC4)nc3)cc(-c3cc(Cl)cc(Cl)c3)c2)CC1 [US11773078, Example 170] | 0.794 |
| CNC(=O)NCC1CCN(Cc2cc(Oc3cnc(N4CCN(CCC(C)[S+](C)[O-])CC4)nc3)nc(-c3cc(Cl)cc(Cl)c3)c2)CC1 (configuration not stated) [US11773078, Example 17] | 0.032 |
| CN1C2CCC1CN(c1ncc(Cc3nc(-c4cc(Cl)cc(Cl)c4)cc(CN4CCC(CC(=O)O)CC4)c3F)cn1)C2 [US11773078, Example 378] | 2 |
| CC(=O)NCC1CCN(Cc2cc(Oc3cnc(N4CCN(CCS(=O)(=O)O)CC4)nc3)nc(-c3cc(Cl)cc(Cl)c3)c2)CC1 [US11773078, Example 287] | 2 |
| CNC(=O)OCC1CCN(Cc2cc(Oc3cnc(N4CCN(CCC(=O)O)CC4)nc3)nc(-c3cc(Cl)cc(Cl)c3)c2)CC1 [US11773078, Example 248] | 0.032 |
| CN1CCCN(c2ccc(Oc3cc(CN4CC[C@@H]5[C@H](CC4)[C@H]5C(=O)O)cc(-c4cc(Cl)cc(Cl)c4)n3)nn2)CC1 [US11773078, Example 362] | 0.032 |
| CC(=O)NCC1CCN(Cc2cc(Oc3ccc(N4C[C@H](CN)[C@@H](O)C4)nc3)nc(-c3cc(Cl)cc(Cl)c3)c2)CC1 [US11773078, Example 184] | 0.251 |
| CC(=O)NCC1CCN(Cc2cc(Oc3cnc(C4CCN(C(C)CC(=O)O)CC4)nc3)nc(-c3cc(Cl)cc(Cl)c3)c2)CC1 (configuration not stated) [US11773078, Example 282] | 0.2 |
| CN1C2CC1CN(c1ncc(Oc3cc(CN4CCC(CC(=O)O)CC4)cc(-c4cc(Cl)cc(Cl)c4)n3)cn1)C2 [US11773078, Example 228] | 2.51 |
| CC(=O)NCC1CCN(Cc2cc(Cc3ccc(N4CCN(CCC(=O)O)CC4)nn3)nc(-c3cc(Cl)cc(Cl)c3)c2)CC1 [US11773078, Example 169] | 0.032 |
| CNC(=O)NCC1CCN(Cc2cc(Cc3cnc(N4CCN(CCC(C)S(C)(=O)=O)CC4)nc3)nc(-c3cc(Cl)cc(Cl)c3)c2)CC1 (configuration not stated) [US11773078, Example 220] | 0.063 |
| C[C@H](CC1CCN(Cc2cc(Oc3ccc(N4CCN(C)CC4)nn3)nc(-c3cc(Cl)cc(Cl)c3)c2)CC1)C(=O)O [US11773078, Example 364] | 0.2 |
| CNC(=O)OCC1CCN(Cc2cc(Oc3ccc(N4CCN(C)CC4)nc3)nc(-c3cc(Cl)cc(Cl)c3)c2)CC1 [US11773078, Example 67] | 1.58 |
| O=C(O)CCC1CCN(Cc2cc(Oc3cnc(N4CCN(CCO)CC4)nc3)cc(-c3cc(Cl)cc(Cl)c3)c2)CC1 [US11773078, Example 114] | < 0.158 |

Now from value to molecule:

| IC50 [nM] | Compound |
| --- | --- |
| 0.398 | CC(=O)NCC1CCN(Cc2cc(Oc3cnc(N4CCN(CCC5(C(=O)O)CC5)CC4)nc3)cc(-c3cc(Cl)cc(Cl)c3)c2)CC1 [US11773078, Example 173] |
| < 0.158 | CC(=O)NCC1CCN(Cc2cc(Oc3ccc(N4CCN(CCCS(C)(=O)=O)CC4)nc3)nc(-c3cc(Cl)cc(Cl)c3)c2)CC1 [US11773078, Example 251] |
| < 0.158 | CNC(=O)NCC1CCN(Cc2cc(Oc3cnc(N4CCN(CCO)CC4)nc3)cc(-c3cc(Cl)cc(Cl)c3)c2)CC1 [US11773078, Example 313] |
| 0.2 | CC(=O)NCC1CCN(Cc2cc(Cc3cnc(N4CC5CCC(C4)N5C)nc3)nc(-c3cc(Cl)cc(Cl)c3)c2)CC1 [US11773078, Example 71] |
| 0.631 | CN1CCC(c2ncc(Oc3cc(CN4CCC(CC(=O)O)CC4)cc(-c4cc(Cl)cc(Cl)c4)n3)cn2)CC(F)C1 (configuration not stated) [US11773078, Example 147] |
| 2 | CC(C)(O)CCC1CCN(Cc2cc(Oc3ccc(N4CCNCC4)nc3)nc(-c3cc(Cl)cc(Cl)c3)c2)CC1 [US11773078, Example 120] |
| < 0.158 | CC(=O)NCC1CCN(Cc2cc(Oc3cnc(N4CCN(CCCO)CC4)nc3)cc(-c3cc(Cl)cc(Cl)c3)c2)CC1 [US11773078, Example 113] |
| 0.025 | CC(=O)NCC1CCN(Cc2cc(Oc3ccc(N4C[C@H](C)N(CCS(C)(=O)=O)C[C@@H]4C)nc3)nc(-c3cc(Cl)cc(Cl)c3)c2)CC1 [US11773078, Example 183] |
| 0.013 | CNC(=O)OCC1CCN(Cc2cc(Oc3cnc(N4CCN(C(C)CCC(=O)O)CC4)nc3)nc(-c3cc(Cl)cc(Cl)c3)c2)CC1 (configuration not stated) [US11773078, Example 208] |
| 0.398 | CC(=O)NCC1CCN(Cc2cc(Cc3cnc(N4CCN(C(C)CCC(=O)O)CC4)nc3)nc(-c3cc(Cl)cc(Cl)c3)c2)CC1 (configuration not stated) [US11773078, Example 215] |
| 0.794 | CN1CCN(c2ncc(Oc3cc(CN4CC[C@@H]5[C@H](CC4)[C@H]5C(=O)O)cc(-c4cc(Cl)cc(Cl)c4)n3)cn2)CC1 [US11773078, Example 321] |
